Test results as given in patent US20050101595A1, “N-containing cycloalkyl-substituted amino-thiazole derivatives and pharmaceutical compositions for inhibiting cell proliferation and methods for their use” (PFIZER INC., priority 2003, published 2005).
Where a name gives a salt, the structure may show the parent alone. Read-outs that look alike come from different tables or passages of the source.

How the values were obtained:
CDK2/Cyclin A = CDK2/Cyclin A (Homo sapiens, UniProt P24941); assay: Inhibition of CDK2/Cyclin A Retinoblastoma Kinase Activity; format: biochemical; conditions: apparent Ki, CDK2/proteolyzed cyclin A, Rb fragment substrate, 25 μM ATP
Summary of the method: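 Baculovirus-expressed CDK2 complexed with proteolyzed cyclin A (10 or 19 nM), Rb fragment substrate, 25 μM [32P/33P]ATP, HEPES pH 7.4, 30 °C for 60 or 75 min under initial-rate conditions. Filter capture and phosphorimager readout; apparent Ki fitted to competitive or tight-binding competitive inhibition.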

HCT-116 cell line = assay: Inhibition of cell growth, tetrazolium salt (MTT) assay; format: cell-based; conditions: Homo sapiens, HCT-116, 120 h, MTT, three to five days, read-out: HCT-116 IC50
Summary of the method: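 HCT-116 cells in McCoy's 5A medium received compound 4 h after plating (0.5% v/v DMSO) and were incubated three to five days at 37° C, 5% CO2. MTT (0.2 mg/mL final) then added for 4 h; DMSO-solubilized formazan read at 540 nm against 0.5% DMSO-treated controls.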

[1] = molecular target: human CDK4 and genetically truncated (1-264) cyclin D3 (Homo sapiens, UniProt P11802); assay: Inhibition of CDK4/Cyclin D Retinoblastoma Kinase Activity; format: biochemical; conditions: apparent Ki, CDK4/truncated cyclin D3, Rb fragment substrate, 25 μM ATP
human CDK4 and genetically truncated (1-264) cyclin D3, sequence (P11802 whole entry, the tested form may be a part): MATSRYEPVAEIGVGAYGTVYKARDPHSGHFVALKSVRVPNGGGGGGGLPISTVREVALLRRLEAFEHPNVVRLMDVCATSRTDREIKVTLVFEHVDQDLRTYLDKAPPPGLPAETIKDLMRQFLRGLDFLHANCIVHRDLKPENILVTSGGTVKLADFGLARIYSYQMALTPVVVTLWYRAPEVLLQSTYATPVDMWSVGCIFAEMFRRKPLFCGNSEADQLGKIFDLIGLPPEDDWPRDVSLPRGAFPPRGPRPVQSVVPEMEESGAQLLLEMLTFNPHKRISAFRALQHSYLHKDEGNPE
human CDK4 and genetically truncated (1-264) cyclin D3, sequence (P30281 1-264 partner): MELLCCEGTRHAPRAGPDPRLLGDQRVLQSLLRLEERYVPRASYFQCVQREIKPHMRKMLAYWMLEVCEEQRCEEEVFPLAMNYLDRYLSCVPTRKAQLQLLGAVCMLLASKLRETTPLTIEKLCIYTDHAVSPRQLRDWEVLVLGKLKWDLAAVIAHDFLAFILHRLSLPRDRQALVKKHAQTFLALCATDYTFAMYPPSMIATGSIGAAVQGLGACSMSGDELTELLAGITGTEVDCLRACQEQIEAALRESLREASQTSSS
Summary of the method: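 Human CDK4/truncated cyclin D3 (1-264) complex from baculovirus-infected insect cells, 5 nM, phosphorylating Rb fragment (residues 386-928, His-tagged) with 25 μM [32/33P]ATP in HEPES pH 7.4, MgCl2, 2% DMSO at 30° C. for 20 min (60 min for tight binders). Filter-captured radioactivity by phosphorimager; apparent Ki from competitive or tight-binding fits.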

| Ki (CDK2/Cyclin A) | IC50 (HCT-116 cell line; first HCT-116 column (c4)) | IC50 (HCT-116 cell line; second HCT-116 column (c5)) | Ki [1] | Structure (SMILES) |
| --- | --- | --- | --- | --- |
| < 1 nM | 2600 nM | > 5000 nM | 0.72 nM | Nc1nc(NC2CCN(S(=O)(=O)c3ccc(O)nc3)CC2)sc1C(=O)c1c(F)cccc1F [Example H1, 1-{4-Amino-2-[1-(6-hydroxy-pyridine-3-sulfonyl)-piperidin-4-ylamino]-thiazol-5-yl}-1-(2,6-difluoro-phenyl)-methanone Trifluoroacetic Acid Salt] |
| 2.8 nM | 80 nM | 250 nM | 0.77 nM | Nc1nc(NC2CCN(S(=O)(=O)c3ccc(OCCN4CCOCC4)nc3)CC2)sc1C(=O)c1c(F)cccc1F [Example H2, 1-{4-Amino-2-[1-{6-morpholin-(4-yl-ethoxy)-pyridine-3-sulfonyl}-piperidin-4-ylamino]-thiazol-5-yl}-1-(2,6-difluoro-phenyl)-methanone Hydrochloride] |
| 1.8 nM | 51 nM | 320 nM | 0.67 nM | CN(C)CCOc1ccc(S(=O)(=O)N2CCC(Nc3nc(N)c(C(=O)c4c(F)cccc4F)s3)CC2)cn1 [Example H3, 1-(4-Amino-2-{1-[6-(2-dimethylamino-ethoxy)-pyridine-3-sulfonyl]-piperidin-4-ylamino}-thiazol-5-yl)-1-(2,6-difluoro-phenyl)-methanone Hydrochloride] |
| 0.7 nM | 100 nM | 500 nM | 2.5 nM | Nc1nc(NC2CCN(S(=O)(=O)c3ccc(OCCO)nc3)CC2)sc1C(=O)c1c(F)cccc1F [Example H4, 1-(4-Amino-2-{1-[6-(2-hydroxy-ethoxy)-pyridine-3-sulfonyl]-piperidin-4-ylamino}-thiazol-5-yl)-1-(2,6-difluoro-phenyl)-methanone] |
| 1.1 nM | 71 nM | > 500 nM | 0.39 nM | Nc1nc(NC2CCN(S(=O)(=O)c3ccc(OCCN4CCCC4)nc3)CC2)sc1C(=O)c1c(F)cccc1F [Example H5, 1-(4-Amino-2-{1-[6-(2-pyrrolidin-1-yl-ethoxy)-pyridine-3-sulfonyl]-piperidin-4-ylamino}-thiazol-5-yl)-1-(2,6-difluoro-phenyl)-methanone Trifluoroacetic Acid Salt] |
| 0.84 nM | 60 nM | 500 nM | 0.38 nM | Nc1nc(NC2CCN(S(=O)(=O)c3ccc(OCCN4CCCCC4)nc3)CC2)sc1C(=O)c1c(F)cccc1F [Example H6, 1-[4-Amino-2-{1-[6-(2-piperidin-1-yl-ethoxy)-pyridine-3-sulfonyl]-piperidin-4-ylamino}-thiazol-5-yl)-1-(2,6-difluoro-phenyl)-methanone Dihydrochloride] |
| 0.8 nM | 40 nM | 250 nM | 0.21 nM | CN1CCCC(COc2ccc(S(=O)(=O)N3CCC(Nc4nc(N)c(C(=O)c5c(F)cccc5F)s4)CC3)cn2)C1 (centres unmarked) [Example H7, 1-[4-Amino-2-{1-[6-(1-methyl-piperidin-3RS-ylmethoxy)-pyridine-3-sulfonyl]-piperidin-4-ylamino}-thiazol-5-yl)-1-(2,6-difluoro-phenyl)-methanone Trifluoroacetic Acid Salt] |
| < 1 nM | 580 nM | 1300 nM | 0.67 nM | Nc1nc(NC2CCN(S(=O)(=O)c3ccc(OCc4cccnc4)nc3)CC2)sc1C(=O)c1c(F)cccc1F [Example H8, 1-(4-Amino-2-{1-[6-(pyridin-3-ylmethoxy)-pyridine-3-sulfonyl]-piperidin-4-ylamino}-thiazol-5-yl)-1-(2,6-difluoro-phenyl)-methanone Trifluoroacetic Acid Salt] |
| < 0.5 nM | 480 nM | 3100 nM | 1.2 nM | Nc1nc(NC2CCN(S(=O)(=O)c3ccc(OCCn4ccnc4)nc3)CC2)sc1C(=O)c1c(F)cccc1F [Example H9, 1-(4-Amino-2-{1-[6-(2-imidazol-1-yl-ethoxy)-pyridine-3-sulfonyl]-piperidin-4-ylamino}-thiazol-5-yl)-1-(2,6-difluoro-phenyl)-methanone Hydrochloride] |
| 6.9 nM | 42 nM | 130 nM | 0.28 nM | CN1CCC[C@H](COc2ccc(S(=O)(=O)N3CCC(Nc4nc(N)c(C(=O)c5c(F)cccc5F)s4)CC3)cn2)C1 [Example H11, 1-(4-Amino-2-{1-[6-(1-methyl-piperidin-3S-ylmethoxy)-pyridine-3-sulfonyl]-piperidin-4-ylamino}-thiazol-5-yl)-1-(2,6-difluoro-phenyl)-methanone Dihydrochloride] |
| 0.88 nM | 58 nM | 400 nM | 0.39 nM | CN1CCC[C@H]1COc1ccc(S(=O)(=O)N2CCC(Nc3nc(N)c(C(=O)c4c(F)cccc4F)s3)CC2)cn1 [Example H12, 1-(4-Amino-2-{1-[6-(1-methyl-pyrrolidin-2S-ylmethoxy)-pyridine-3-sulfonyl]-piperidin-4-ylamino}-thiazol-5-yl)-1-(2,6-difluoro-phenyl)-methanone] |

The next lines start with the compound.

| Structure (SMILES) | Ki (CDK2/Cyclin A) | IC50 (HCT-116 cell line; first HCT-116 column (c4)) | IC50 (HCT-116 cell line; second HCT-116 column (c5)) | Ki [1] |
| --- | --- | --- | --- | --- |
| Nc1nc(NC2CCN(S(=O)(=O)c3ccc(-n4ccnc4)nc3)CC2)sc1C(=O)c1c(F)cccc1F [Example G25, 1-{4-Amino-2-[1-(6-imidazol-1-yl-pyridine-3-sulfonyl)-piperidin-4-ylamino]-thiazol-5-yl}-1-(2,6-difluoro-phenyl)-methanone Trifluoroacetic Acid Salt] | 0.27 nM | 63 nM | > 500 nM | 0.36 nM |
| Cc1nccn1-c1ccc(S(=O)(=O)N2CCC(Nc3nc(N)c(C(=O)c4c(F)cccc4F)s3)CC2)cn1 [Example G26, 1-(4-Amino-2-{1-[6-(2-methyl-imidazol-1-yl)-pyridine-3-sulfonyl]-piperidin-4-ylamino}-thiazol-5-yl)-1-(2,6-difluoro-phenyl)-methanone] | 0.64 nM | 140 nM | 220 nM | 1.3 nM |
| Cc1cn(-c2ccc(S(=O)(=O)N3CCC(Nc4nc(N)c(C(=O)c5c(F)cccc5F)s4)CC3)cn2)cn1 [Example G27, 1-(4-Amino-2-{1-[6-(4-methyl-imidazol-1-yl)-pyridine-3-sulfonyl]-piperidin-4-ylamino}-thiazol-5-yl)-1-(2,6-difluoro-phenyl)-methanone Hydrochloride] | 0.41 nM | 57 nM | 250 nM | < 1 nM |
| Cc1cncn1-c1ccc(S(=O)(=O)N2CCC(Nc3nc(N)c(C(=O)c4c(F)cccc4F)s3)CC2)cn1 [Example G28, 1-(4-Amino-2-{1-[6-(5-methyl-imidazol-1-yl)-pyridine-3-sulfonyl]-piperidin-4-ylamino}-thiazol-5-yl)-1-(2,6-difluoro-phenyl)-methanone Hydrochloride] | 0.4 nM | 160 nM | 330 nM | 0.85 nM |
| C[C@@H]1CN(c2ccc(S(=O)(=O)N3CCC(Nc4nc(N)c(C(=O)c5c(F)cccc5F)s4)CC3)cc2)C[C@H](C)N1 [Example G29, 1-(4-Amino-2-{1-[4-(3R,5S-dimethyl-piperazin-1-yl)-benzenesulfonyl]-piperidin-4-ylamino}-thiazol-5-yl)-1-(2,6-difluoro-phenyl)-methanone] | 0.72 nM | 45 nM | 250 nM | 0.61 nM |
| CC1(C)CN(c2ccc(S(=O)(=O)N3CCC(Nc4nc(N)c(C(=O)c5c(F)cccc5F)s4)CC3)cc2)CCN1 [Example G31, 1-(4-Amino-2-{1-[4-(3,3-dimethyl-piperazin-1-yl)-benzenesulfonyl]-piperidin-4-ylamino}-thiazol-5-yl)-1-(2,6-difluoro-phenyl)-methanone] | 0.82 nM | 110 nM | 1500 nM | 0.53 nM |
| CN(C)CCN(C)c1ccc(C(=O)N2CCC(Nc3nc(N)c(C(=O)c4c(F)cccc4F)s3)CC2)cn1 [Example G32, 1-{4-Amino-2-[1-(1-{6-[(2-dimethylamino-ethyl)-methyl-amino]-pyridin-3-yl}-methanoyl)-piperidin-4-ylamino]-thiazol-5-yl}-1-(2,6-difluoro-phenyl)-methanone Trifluoroacetic Acid Salt] | 60 nM | 4700 nM | > 5000 nM | 42 nM |
| C[C@@H]1CN(c2ncc(S(=O)(=O)N3CCC(Nc4nc(N)c(C(=O)c5c(F)cccc5F)s4)CC3)cn2)C[C@H](C)N1 [Example G33, (4-Amino-2-{1-[2-(3,5-dimethyl-piperazine-1-yl)-pyrimidine-5-sulfonyl]-piperidine-4-ylamino}-thiazol-5-yl)-(2,6-difluoro-phenyl)-methanone Hydrochloride Salt] | 1 nM | 51 nM | 800 nM | 0.3 nM |
| CN1CCN(c2ncc(S(=O)(=O)N3CCC(Nc4nc(N)c(C(=O)c5c(F)cccc5F)s4)CC3)cn2)CC1 [Example G34, (4-Amino-2-{1-[2-(4-methyl-piperazin-1-yl)-pyrimindine-5-sulfonyl]-piperidin-4-ylamino}-thiazol-5-yl)-(2,6-difluoro-phenyl)-methanone Hydrochloride Salt] | 0.82 nM | 40 nM | 250 nM | 0.57 nM |
